What was measured:
Assay type in all cases: cell-based
[1] = Viability evaluation (MTS/PMS) of replicon RNA-transfected Huh7 cells, Example 2; settings: human, highest tested concentration 50 µM
From the text: Obtained values are expressed as percent inhibition of untreated RNA-transfected control condition.

[2] = test system: rat HEV replicon LAB350/luc; assay: Antiviral activity against rat HEV replicon LAB350/luc in Huh7 cells (Gaussia luciferase); settings: Huh-7, 72 h, 3 days, 50% reduction in Luc signal, two experiments
[3] = test system: HEV Genotype 3 replicon Kernow-C1 p6/luc; assay: Antiviral activity against HEV Genotype 3 replicon Kernow-C1 p6/luc in Huh7 cells (Gaussia luciferase); settings: Huh-7, 96 h, read-out: relative EC50

Row | SMILES | CC50 [1] | EC50 [2] | EC50 [3]
1 | CCOc1nc(N)nc2c1ncn2[C@@H]1O[C@](F)(COP(=O)(N[C@@H](C)C(=O)OC2CCCCC2)Oc2ccccc2)[C@@H](O)[C@@]1(C)O (stereo partly shown) [Compound 2] | > 50 µM |  | 
2 | CCOc1nc(N)nc2c1ncn2[C@@H]1O[C@](F)(COP(=O)(OCOC(=O)OC(C)C)OCOC(=O)OC(C)C)[C@@H](O)[C@@]1(C)F [Compound 3] | > 50 µM |  | 
3 | CCOc1nc(N)nc2c1ncn2[C@@H]1O[C@]2(F)CO[P@@](=O)(NCC(=O)OC(C)C)O[C@H]2[C@@]1(C)F [Compound 5] | > 50 µM | 0.046 µM | 0.022 µM
4 | CCOc1nc(N)nc2c1ncn2[C@@H]1O[C@](F)(COP(=O)(OCOC(=O)OC(C)C)OCOC(=O)OC(C)C)[C@@H](O)[C@@]1(C)O [Compound 6] | > 50 µM |  | 
5 | CC(C)OC(=O)[C@H](C)N[P@](=O)(OC[C@@]1(F)O[C@@H](n2ccc(=O)[nH]c2=O)[C@](C)(O)[C@@H]1O)Oc1ccccc1 [Compound 7] | > 50 µM |  | 
6 | CCOc1nc(N)nc2c1ncn2[C@@H]1O[C@]2(F)CO[P@@](=O)(N[C@H](C)C(=O)OC(C)C)O[C@H]2[C@@]1(C)F [Compound 8] | > 50 µM |  | 
7 | CC(C)OC(=O)OCOP(=O)(OCOC(=O)OC(C)C)OC[C@@]1(F)O[C@@H](n2ccc(=O)[nH]c2=O)[C@](C)(O)[C@@H]1O [Compound 9] | > 50 µM |  | 
8 | CC(C)OC(=O)OCOP(=O)(OCOC(=O)OC(C)C)OC[C@@]1(F)O[C@@H](n2ccc(=O)[nH]c2=O)[C@](C)(F)[C@@H]1O [Compound 11] | > 50 µM |  | 
